Read-outs that look alike come from different tables or passages of the source.

For experiment [1], the target named is T1, STAT5b (Homo sapiens, UniProt P51692).
T1 construct: made in house
T1 sequence (P51692 1-787): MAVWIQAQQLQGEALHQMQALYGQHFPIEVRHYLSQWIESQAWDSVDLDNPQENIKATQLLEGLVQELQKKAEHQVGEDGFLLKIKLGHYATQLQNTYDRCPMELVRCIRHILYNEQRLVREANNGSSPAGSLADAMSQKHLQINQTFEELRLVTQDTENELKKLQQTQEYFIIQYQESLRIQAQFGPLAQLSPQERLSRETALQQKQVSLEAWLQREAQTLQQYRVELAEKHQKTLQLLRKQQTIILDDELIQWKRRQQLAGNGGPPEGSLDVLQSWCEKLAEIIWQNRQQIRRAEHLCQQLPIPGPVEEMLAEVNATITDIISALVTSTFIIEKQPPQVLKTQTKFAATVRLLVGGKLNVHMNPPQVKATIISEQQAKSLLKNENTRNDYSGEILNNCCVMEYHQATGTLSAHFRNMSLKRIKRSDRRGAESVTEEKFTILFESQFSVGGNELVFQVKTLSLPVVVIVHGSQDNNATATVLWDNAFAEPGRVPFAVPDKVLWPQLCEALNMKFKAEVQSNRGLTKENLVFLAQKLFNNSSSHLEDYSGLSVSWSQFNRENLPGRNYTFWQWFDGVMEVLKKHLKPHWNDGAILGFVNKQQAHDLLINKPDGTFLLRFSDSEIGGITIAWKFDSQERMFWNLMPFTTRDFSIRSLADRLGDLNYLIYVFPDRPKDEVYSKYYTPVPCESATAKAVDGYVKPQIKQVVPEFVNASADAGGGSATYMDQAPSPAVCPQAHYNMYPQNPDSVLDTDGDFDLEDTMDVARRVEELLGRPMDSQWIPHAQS
The experiment in a line: Fluorescence polarization competitive binding assay, STAT5b. The following applies: for inhibition at 100 µM: read-out: Inhibition of STAT5b at 100 µM; for inhibition at 200 µM: read-out: STAT5b inhibition at 200 μM. For orientation: Polarisation of emitted light reports the rotation of a fluorescent probe.

Experiment [2] deals with STAT3 (Homo sapiens, UniProt P40763). The experiment in a line: Fluorescence polarization competitive binding assay, STAT3 SH2 domain. The conditions noted are these: for inhibition at 100 µM: read-out: Inhibition of STAT3 at 100 µM; for inhibition at 200 µM: read-out: STAT3 inhibition at 200 μM.
From the text: Expression and purification of STAT1, STAT3, STAT4, STAT5a, STAT5b, STAT5a Trp566Arg, STAT5b Arg566Trp, STAT5b 6M, STAT5b 7M, STAT6, and Lck have previously been described.[4, 12] STAT proteins were purified over a single His-Bind resin (Millipore) column.
Wild-type and mutant STAT5a/b proteins used for activity analysis of 20 were purified over two successive His-Bind resin columns.[4, 13]
Fluorescence Polarization assays
Competitive binding assays based on fluorescence polarization were essentially carried out as described.[14] Unless stated otherwise, the following final concentration of proteins were used:
STAT4; 105 nM for STAT6; 30 nM for Lck. Final concentration of all peptides: 10 nM. Peptides used: 5-carboxyfluorescein-GpYLVLDKW for STAT5a/b and point mutants thereof; 5-carboxyfluorescein-GpYLPQTV-NH2 for STAT3; 5-carboxyfluorescein-GpYDKPHVL for STAT1; 5-carboxyfluorescein-GpYLPQNID-OH for STAT4; 5-carboxyfluorescein-
analysis of 20 against wild-type (wt) STAT5a/b and STAT5a/b point mutants, the following concentrations of double-purified protein were used, which reflect the approximate Kd values of the interactions with 5-carboxyfluorescein-GpYLVLDKW: STAT5a wt: 147 nM; STAT5b wt:
STAT5b 6M: 80 nM; STAT5b 7M: 282 nM. Assay buffer: 10 mM Tris (pH 8.0), 50 mM NaCl, 1 mM EDTA, 1 mM DTT, 0.1 % Nonidet P-40 substitute, and 2 % DMSO in water. A major part of the pipetting was done using a Biomek FXp sceening robot (Beckman-Coulter). Protein and test compounds were incubated for 1 h, followed by addition of the fluorescein-labeled peptide.
Fluorescence polarization was measured after another hour using an Infinite F500 plate reader (Tecan). IC50 values were converted to Ki-values using the published equation.[15]
Experiment [3] deals with T2, STAT5a (Homo sapiens, UniProt P42229).
T2 construct: made in house
T2 sequence (P42229 1-794): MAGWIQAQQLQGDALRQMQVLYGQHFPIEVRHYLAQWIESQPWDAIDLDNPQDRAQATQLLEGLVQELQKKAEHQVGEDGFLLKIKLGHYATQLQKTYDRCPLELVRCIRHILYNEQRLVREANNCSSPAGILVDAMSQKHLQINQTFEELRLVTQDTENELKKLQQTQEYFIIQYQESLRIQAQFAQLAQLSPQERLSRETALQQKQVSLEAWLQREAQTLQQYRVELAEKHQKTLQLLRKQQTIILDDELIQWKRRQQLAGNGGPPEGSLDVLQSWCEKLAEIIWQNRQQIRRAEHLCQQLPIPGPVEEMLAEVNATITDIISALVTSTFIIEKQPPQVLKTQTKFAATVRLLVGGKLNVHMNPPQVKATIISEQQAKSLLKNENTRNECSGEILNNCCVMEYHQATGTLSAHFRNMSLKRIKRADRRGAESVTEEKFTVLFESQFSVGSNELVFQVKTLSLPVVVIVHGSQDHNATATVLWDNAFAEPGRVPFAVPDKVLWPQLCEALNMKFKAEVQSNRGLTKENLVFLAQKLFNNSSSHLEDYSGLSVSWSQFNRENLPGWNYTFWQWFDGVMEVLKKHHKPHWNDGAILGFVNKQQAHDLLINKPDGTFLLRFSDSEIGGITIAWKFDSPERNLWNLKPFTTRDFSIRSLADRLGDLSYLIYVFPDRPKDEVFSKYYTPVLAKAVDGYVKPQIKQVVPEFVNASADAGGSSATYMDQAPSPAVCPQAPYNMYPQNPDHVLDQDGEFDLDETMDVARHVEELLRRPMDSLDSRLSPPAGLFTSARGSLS
The experiment in a line: Fluorescence polarization competitive binding assay, STAT5a. The conditions noted are these: for inhibition at 100 µM: read-out: Inhibition of STAT5a at 100 µM.

[4] abbreviates: FP assay, IC50 converted to Ki, read-out: STAT5a K i.

STAT3, sequence (P40763 whole entry, species assumed, the tested form may be a part): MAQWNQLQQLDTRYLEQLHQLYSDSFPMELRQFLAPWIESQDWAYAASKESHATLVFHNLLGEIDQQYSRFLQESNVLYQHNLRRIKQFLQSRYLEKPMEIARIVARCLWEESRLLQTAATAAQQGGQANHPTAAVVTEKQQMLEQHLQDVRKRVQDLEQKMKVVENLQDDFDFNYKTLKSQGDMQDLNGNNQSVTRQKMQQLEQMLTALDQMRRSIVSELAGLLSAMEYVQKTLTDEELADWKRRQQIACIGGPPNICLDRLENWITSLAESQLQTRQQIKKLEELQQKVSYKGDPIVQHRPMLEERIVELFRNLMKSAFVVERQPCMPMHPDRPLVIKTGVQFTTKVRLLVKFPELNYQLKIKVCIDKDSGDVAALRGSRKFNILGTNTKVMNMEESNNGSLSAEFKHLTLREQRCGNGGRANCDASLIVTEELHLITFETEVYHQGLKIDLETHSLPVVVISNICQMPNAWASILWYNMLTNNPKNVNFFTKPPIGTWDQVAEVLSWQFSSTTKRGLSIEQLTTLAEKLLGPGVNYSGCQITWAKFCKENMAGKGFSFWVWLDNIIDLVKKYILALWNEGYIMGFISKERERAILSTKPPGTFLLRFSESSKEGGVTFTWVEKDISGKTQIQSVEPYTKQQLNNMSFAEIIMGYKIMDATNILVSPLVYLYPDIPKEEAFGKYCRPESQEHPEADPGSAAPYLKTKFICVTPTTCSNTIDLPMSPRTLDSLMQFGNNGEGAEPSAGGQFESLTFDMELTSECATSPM

The inhibition is how much of the control response was suppressed. For `O=C(C=Cc1ccccc1C(F)(F)F)c1cccc(OP(=O)(O)O)c1` [Compound 3], the figures for the inhibition at 100 µM in experiment [1], in experiment [2] and in experiment [3] were 31 ± 3%, 53 ± 3% and 37 ± 9%, respectively.

One may read the IC50 as the concentration needed to halve the response being measured. Low readings indicate inhibition by little substance, high ones a need for much substance. Take `O=P(O)(O)Oc1cc(-c2ccc3c(c2)OCO3)cc(-c2ccc3c(c2)OCO3)c1` [Compound 18]: the 50% inhibitory concentration (IC50) in experiment [1] was 56.4 ± 1 µM; in experiment [2], 129 ± 5 µM; in experiment [3], 28.4 ± 4.4 µM. The Ki in experiment [1] was determined as 28 ± 0.5 µM; in experiment [2], 63.8 ± 2.3 µM; in experiment [3], 14 ± 2.1 µM.

With `COc1cc(OC)cc(-c2cc(OP(=O)(O)O)cc(-c3cc(OC)cc(OC)c3)c2)c1` [Compound 17], the values for the IC50 in experiment [1] and in experiment [3] were 73.4 ± 5 µM and 34.7 ± 4.5 µM, respectively. The Ki was found to be 36.5 ± 2.5 µM in experiment [1] and 17.1 ± 2.2 µM in experiment [3]. For the same molecule, the inhibition at 200 µM in experiment [2] was determined as 50 ± 3%.

Take `COc1ccc(-c2cc(OP(=O)(O)O)cc(-c3ccc(OC)c(OC)c3)c2)cc1OC` [Compound 15]: in experiment [1], the inhibition at 200 µM turned out to be 44 ± 3%. Besides, the inhibition at 200 µM in experiment [2] is 43 ± 2%. For the same molecule, in experiment [3], the IC50 worked out at 33.4 ± 5.2 µM and the Ki amounted to 16.5 ± 2.5 µM.

With `O=C(Nc1cccc(OP(=O)(O)O)c1)c1cccc(S(=O)(=O)N2CCCC2)c1` [Compound 7], the inhibition at 100 µM in experiment [1] amounted to 4 ± 9%; in experiment [2], 3 ± 2%; in experiment [3] it was 26 ± 17%.

Take `COc1cc(-c2cc(-c3cc(OC)c(OC)c(OC)c3)cc(C(F)(F)P(=O)(O)O)c2)cc(OC)c1OC` [Compound 25]: the Ki in experiment [3] (setting [4]) amounted to 52 ± 3 µM.

Regarding `O=C(CCNS(=O)(=O)c1ccc(C2CCCCC2)cc1)N1CCN(c2ccc(OP(=O)([O-])[O-])cc2)CC1.[Na+].[Na+]` [Compound 8], in experiment [1] (FP assay, 100 µM), the “Inhibition of STAT5b at 100 µM” value amounted to 63±1%. In addition, the “Inhibition of STAT3 at 100 µM” value in experiment [2] (FP assay, 100 µM) was 33±2%. In experiment [3] (FP assay, 100 µM), the “Inhibition of STAT5a at 100 µM” value is listed as 65±5%.

In the case of `O=C(c1ccc([N+](=O)[O-])cc1)c1coc2ccc(OP(=O)(O)O)cc12` [Compound 5], the inhibition at 100 µM turned out to be 88 ± 1% in experiment [1], 26 ± 8% in experiment [2] and 87 ± 2% in experiment [3].

On to `O=P(O)(O)Oc1cc(-c2ccc(Cl)cc2)cc(-c2ccc(Cl)cc2)c1` [Compound 10], for which the IC50 in experiment [1] amounted to 37.7 ± 0.05 µM; in experiment [2], 38.4 ± 1.7 µM; in experiment [3], 42.2 ± 3.3 µM. In addition, the figures for the Ki in experiment [1], in experiment [2] and in experiment [3] were 18.7 ± 0.02 µM, 18.9 ± 0.9 µM and 20.9 ± 1.6 µM, respectively.

Consider `COc1ccc(-c2cc(OP(=O)(O)O)cc(-c3ccc(OC)cc3)c2)cc1` [Compound 12], for which the IC50 stood at 77.5 ± 0.4 µM in experiment [1], 156 ± 12 µM in experiment [2] and 27.9 ± 1.7 µM in experiment [3]. Also, the figures for the Ki in experiment [1], in experiment [2] and in experiment [3] were 38.5 ± 0.2 µM, 77.1 ± 5.8 µM and 13.8 ± 0.8 µM, respectively.

Turning to `O=C(C=Cc1c(F)c(F)c(F)c(F)c1F)c1cccc(OP(=O)(O)O)c1` [Compound 2], the inhibition at 100 µM turned out to be 37 ± 2% in experiment [1], 43 ± 2% in experiment [2] and 51 ± 4% in experiment [3].

In the case of `O=P(O)(O)Oc1cc(-c2ccc3c(c2)OCCO3)cc(-c2ccc3c(c2)OCCO3)c1` [Compound 19], the IC50 in experiment [1] stood at 71.2 ± 5.7 µM; in experiment [2] it was 104 ± 4 µM; in experiment [3] it was 22.5 ± 3.8 µM. The Ki in experiment [1] is 35.4 ± 2.8 µM; in experiment [2], 51.2 ± 2 µM; in experiment [3] it was 11.1 ± 1.9 µM.

Turning to `CC(=O)Nc1ccc(C=CC(=O)c2cccc(OP(=O)(O)O)c2)cc1` [Compound 4], the results for the inhibition at 100 µM in experiment [1], in experiment [2] and in experiment [3] were 52 ± 4%, 29 ± 7% and 57 ± 2%, respectively.

Turning to `COc1cccc(-c2cc(OP(=O)(O)O)cc(-c3cccc(OC)c3OC)c2)c1OC` [Compound 16], the inhibition at 200 µM was determined as 40 ± 2% in experiment [1] and 15 ± 2% in experiment [2]. Also, in experiment [3], the IC50 is 45.1 ± 9.8 µM. In experiment [3], the Ki is 22.3 ± 4.8 µM.

Turning to `COc1cc(-c2cc(CP(=O)(O)O)cc(-c3cc(OC)c(OC)c(OC)c3)c2)cc(OC)c1OC` [Compound 24], the Ki in experiment [3] (setting [4]) worked out at 75 ± 13 µM.

Turning to `COc1cc(-c2cc(-c3cc(OC)c(OC)c(OC)c3)cc(C(F)P(=O)(O)O)c2)cc(OC)c1OC` (centres unmarked) [Compound 26], the Ki in experiment [3] (setting [4]) turned out to be 28 ± 3 µM. For the same molecule, the “selectivity over STAT5b and other STAT proteins” value in experiment [3] (FP assays) is “retained selectivity over STAT5b and other STAT proteins”.

For the origin of these results see PMC6973011, “Stafia‐1: a STAT5a‐Selective Inhibitor Developed via Docking‐Based Screening of in Silico O‐Phosphorylated Fragments” (Chemistry (Weinheim an Der Bergstrasse, Germany), 2019).
